In brackets after ≈: the same amount, converted by molar mass. Blank lines part the entries; values can stand above or below the molecule they belong to.
Assays:
[1] = Rat feeding study: heptadecanoic acid and CoQ10 in duodenum, jejunum, ileum (Example 2); type: in vivo; details: for bioavailability in small intestinal tissues: encapsulated within digestible (corn oil) droplets with the smallest size, rat feeding study
Protocol: An animal feeding study was used to test the bioavailability of free fatty acids and CoQ10. Female Sprague Dawley rats (about 200-250 g) were purchased from Charles River Laboratories (Wilmington, Mass.). The Institutional Animal Care and Use Committee of the University of Massachusetts, Amherst, approved all animal procedures. Animals were housed in individual wire-bottomed cages in a windowless room with a 12-h light-dark cycle. After 10 days of adaptation, rats were fasted for 6 hours and 5 ml of emulsion was administered into a rat's stomach using a feeding needle (Roboz Surgical Instrument, Gaithersburg, Md.). Sample administration was conducted five times with 30 min intervals. Thirty min after the final administration, the rats were sacrificed by CO2 gas asphyxiation and blood samples were collected via cardiac puncture. Collected blood samples were allowed to clot for 30 min and then the serum layer was separated by centrifugation at 800 g for 20 min at 4° C. Serum was kept at −80° C. until analysis. The small intestine was flushed with phosphate buffered saline (PBS) five times, and the duodenum, jejunum, and ileum were collected. The intestine samples were kept at −80° C. until fatty acid composition and CoQ10 analyses. The in vivo experiment was carried out once, using three rats per sample analyzed.
Intestine extract was prepared by a method described previously by Tang, P. H., Miles, M. V., Miles, L., Quinlan, J., Wong, B., Wenisch, A., and Bove, K., “Measurement of reduced and oxidized coenzyme Q(9) and coenzyme Q(10) levels in mouse tissues by HPLC with coulometric detection”, Clinica Chimica Acta, 341(1-2):173-84 (2004), which is incorporated herein in its entirety. After thawing the intestine, approximately, 50 mg of intestine was weighed and 1 ml of ice cold 0.15M NaCl solution was added. Intestine sample (about 50 mg) was homogenized on ice and 50 μL of CoQ6 solution (Internal standard) and 25 μL of 1,4-benzoquione (5 mg/mL) solution was added to oxidize CoQ10. After 30 min. incubation at room temperature, 5 ml of 1-propanol was added and then mixed by vortexing for 1 min. Sample was centrifuged at 2,000 g for 5 min and the supernatant was filtered with a 0.1 μm disposable syringe filter (Celltreat, Shirley, Mass.). The oxidized CoQ10 concentration was standardized relative to the tissue weight.
Quantitative analysis was carried out using a high performance liquid chromatography system (Shimadzu Co. Japan) equipped with a pump (LC-10 AT), UV-visible detector (SPD-M10A), and controller (SCL-10A). A reverse phase C-18 column (ODS-2 Hypersil, 200×4.6 mm, 5 μm, Thermo scientific, Waltham, Mass.) was used. The mobile phase comprised of a mixture of 4.2 g sodium acetate anhydrous, 15 mL of glacial acetic acid, 15 mL 2-propanol, 830 mL methanol, and 140 ml hexane. The injection volume was 100 μl, the flow rate was 1 ml/min, UV detection was made at 275 nm and all analysis was performed at room temperature under isocratic conditions.
Lipids were extracted from samples (duodenum, jejunum, ileum) and blood using a standard method by Folch, J., Lees, M., and Stanley, G. H. S., “A simple method for the isolation and purification of total lipids from animal tissues”, Journal of Biological Chemistry, 226(1):497-509 (1957), which is incorporated herein in its entirety, and then the fatty acids were methylated prior to gas chromatography analysis as taught by Park, Y. and Pariza, M. W., “Evidence that commercial calf and horse sera can contain substantial amounts of trans-10,cis-12 conjugated linoleic acid”, Lipids, 33(8):817-19 (1998), which is incorporated herein in its entirety. Tridecenoic acid was used as an internal standard. Methyl esters of fatty acids were analyzed using a GC instrument (GC-17A, Shimadzu, Kyoto, Japan) fitted with a flame-ionization detector. […]

[2] = Curcumin solubility in curcumin-emulsion mixtures, spectrophotometric (Example 3); type: physicochemical; details: excipient emulsion, aqueous with cosolvent or surfactant or cyclodextrin, thermodynamic from solid
Protocol: Preparation of curcumin-emulsion, curcumin-oil, and curcumin-buffer mixtures. […] After incubation, selected samples were immediately placed in an ice water and then used for the following experiments. In some experiments, the curcumin was mixed with bulk corn oil or with buffer (PBS) solution rather than an emulsion.
(§1) 1 mL of supernatant was then mixed with 5 mL chloroform, vortexed, and centrifuged at 1750 rpm for 10 min at ambient temperature. […] The two bottom chloroform layers were combined, and diluted to an appreciate concentration to be analyzed by a UV-VIS spectrophotometer at 419 nm (Ultraspec 3000 pro, GE Health Sciences, USA). A cuvette containing pure chloroform was used as a reference cell.

[3] = Curcumin oil-solubility in bulk corn oil by turbidity (Example 3); type: physicochemical; details: for dissolution of curcumin crystals in corn oil (turbidity versus time): 3 mg/mL
Protocol: In some experiments, the change in turbidity with time was measured at a fixed incubation temperature (30 or 100° C.) to determine the kinetics of isothermal dissolution.

[4] = Cross-polarized light microscopy of curcumin crystals in mixtures (Example 3); type: physicochemical
[5] = Curcumin solubility in curcumin-excipient emulsion mixtures of different droplet size (Example 4); type: physicochemical; details: for solubility at 10 min: aqueous with cosolvent or surfactant or cyclodextrin, thermodynamic from solid, after incubation at 100° C.; for amount of curcumin present within the emulsion: 30° C. for 30 min
Protocol: The resulting mixtures were then incubated at either 30° C. for 30 min or 100° C. for 10 min to simulate a salad dressing or a cooking sauce, respectively. After incubation, selected samples were immediately placed in an ice water and then used for the following experiments.
as §1, with “One millilitre” for “1 mL”, “rpm (≈940×G)” for “rpm”, “a” for “an appreciate”, “concentration suitable” for “concentration”, “analysed” for “analyzed”, “Sciences, Pittsburgh, Pa.,” for “Sciences,”

[6] = Cross-polarized light microscopy of curcumin crystals (Example 4); type: physicochemical
[7] = In vitro digestion model: bioaccessibility of β-carotene crystals mixed with emulsion or buffer (FIG. 6); type: in vitro ADME; details: β-carotene crystals mixed with oil-in-water emulsion (4% corn oil) versus buffer solution (PBS) without oil
Protocol: In this exemplary embodiment, β-carotene crystals were initially mixed with either an oil-in-water emulsion (containing 4% corn oil) or a buffer solution (PBS) containing no oil. The resulting mixtures were then passed through an in vitro gastrointestinal model that simulated the mouth, stomach, and small intestine. The bioaccessibility of β-carotene was determined by centrifuging the digesta resulting from a GIT model, and then measuring the fraction of β-carotene in the mixed micelle (middle phase). The GIT model used is described in Salvia-Trujillo, L.; Qian, C.; Martin-Belloso, O.; McClements, D. J., “Influence of Particle Size on Lipid Digestion and β-carotene Bioaccessibility in Emulsions and Nanoemulsions”, Food Chemistry, 141:1472-80 (2013), which is incorporated by reference herein in its entirety and for all purposes. In another instance, the method of these teachings also include using an animal feeding study to verify improvement of oral bioavailability when the predetermined pharmaceutical or nutraceutical is ingested with the food matrix. […]

[8] = Simulated gastrointestinal tract model: β-carotene bioaccessibility of nanoemulsions (Example 1); type: in vitro ADME; details: nanoemulsion, 0% corn oil (pure lemon oil system)
Protocol: Each β-carotene-enriched nanoemulsion was passed through a three-step simulated GIT model that consisted of a mouth, gastric, and small intestine phase. The particle size, charge, and microstructure of the samples were measured after incubation in each stage. […]
Small Intestine phase: Digesta samples (30 ml) obtained from the simulated gastric phase were placed in a beaker incubated in a water bath (37° C.) for 10 min and then adjusted to pH 7 with NaOH solution (0.05 or 1 M). […] The amount of free fatty acids released was calculated from the titration curves as described in Li, Y. and McClements, D. J., New Mathematical Model for Interpreting pH-Stat Digestion Profiles: Impact of Lipid Droplet Characteristics on in Vitro Digestibility”, Journal of Agricultural and Food Chemistry, 58:8085-92 (2010), which is incorporated herein in its entirety. The release of free fatty acids from the digestible oil (corn oil) was calculated by subtracting the FFA concentration determined at each time point for the pure lemon oil nanoemulsions from the FFA concentration determined for the nanoemulsions containing corn oil. […]

Compound: COC1=C(OC)C(=O)C(C/C=C(\C)CC/C=C(\C)CC/C=C(\C)CC/C=C(\C)CC/C=C(\C)CC/C=C(\C)CC/C=C(\C)CC/C=C(\C)CC/C=C(\C)CCC=C(C)C)=C(C)C1=O [CoQ10, Coenzyme Q10]
bioavailability in small intestinal tissues [1]: highest
absorption of CoQ10 in all regions of the small intestine ([1]; rat, in vivo): some absorption
absorption of CoQ10 in duodenum ([1]; rat, in vivo): no significant differences
absorption of CoQ10 in jejunum and ileum ([1]; rat, in vivo): significantly higher

solubility at 60 min ([2]; incubation for 60 min at 30° C.): ~54 µg/mL (≈ 147 µM)
solubility at 60 min ([2]; incubation for 60 min at 90° C. (so in the source)): ~218 µg/mL (≈ 592 µM)
dissolution of curcumin crystals in corn oil (turbidity versus time) ([3]; held at 30° C.): only dissolved slowly
dissolution of curcumin crystals in corn oil (turbidity versus time) ([3]; held at 100° C.): rapidly dissolved
solubility ([3]; bulk corn oil, oil or lipid, thermodynamic from solid, ambient temperature, estimated from turbidity at 3 and 4 mg/mL): 3000 to 4000 µg/mL (≈ 8140 to 10900 µM)
dissolution of curcumin crystals in curcumin-emulsion mixtures ([4]; held at 100° C., any incubation time): rapidly and completely dissolved
dissolution of curcumin crystals in curcumin-emulsion mixtures ([4]; incubated at 30° C. from 10 to 120 min): did not completely dissolve
solubility at 10 min ([5]; excipient emulsion, large droplets): 230 µg/mL (≈ 624 µM)
solubility at 10 min ([5]; excipient emulsions, small and medium droplets): 270 to 280 µg/mL (≈ 733 to 760 µM)
amount of curcumin present within the emulsion ([5]; large emulsion): ~88 ± 26 µg/mL
amount of curcumin present within the emulsion ([5]; medium emulsion): ~104 ± 6 µg/mL
amount of curcumin present within the emulsion ([5]; small emulsion): around 66±1 μg/mL
dissolution of curcumin crystals in curcumin-excipient emulsion mixtures ([6]; all mixtures held at 100° C.): rapidly and completely dissolved
dissolution of curcumin crystals in curcumin-excipient emulsion mixtures ([6]; all mixtures incubated at 30° C.): did not completely dissolve
Compound: COc1cc(/C=C/C(=O)CC(=O)/C=C/c2ccc(O)c(OC)c2)ccc1O [curcumin]

Compound: CCCCCCCCCCCCCCCCC(=O)O [heptadecanoic acid, reference compound]
bioavailability in small intestinal tissues [1]: highest
absorption of heptadecanoic acid in duodenum and jejunum ([1]; rat, in vivo): slightly more absorption
absorption of heptadecanoic acid in duodenum, jejunum and ileum ([1]; rat, in vivo): significantly higher

bioaccessibility of β-carotene [7]: increases the bioaccessibility
bioaccessibility of β-carotene [8]: ≈ 5%
Compound: CC1=C(/C=C/C(C)=C/C=C/C(C)=C/C=C/C=C(C)/C=C/C=C(C)/C=C/C2=C(C)CCCC2(C)C)C(C)(C)CCC1 [β-carotene]

— patent US20170035691A1, “FOOD MATRICES AND METHODS OF MAKING AND USING” (UNIVERSITY OF MASSACHUSETTS, priority 2014, published 2017)
